By NOAEL is commonly meant the highest dose or exposure tested at which no adverse effect was seen. As usually defined, the LOAEL is the lowest tested level that showed an adverse finding. Broadly, the LD50 is the dose at which mortality reaches 50%. Low readings indicate greater toxicity, high ones lower toxicity.

Values joined by “and” are separate entries in the source; they are usually repeats but may differ in a detail not shown here. Equal entries are not always repeated.

The subject of data set [1] is Mus musculus. The note with it: for NOAEL / LOAEL: B6C3F1.
Data set [2] deals with Rattus norvegicus.
For data set [3], the system named is Rattus norvegicus. The note with it: subchronic, oral; for NOEL: gavage.
The subject of data set [4] is Rattus norvegicus. To be noted: M/F.
The test system of data set [5] is Oryctolagus sp. To be noted: acute; dermal; New Zealand.
In data set [6] the test system is Rattus norvegicus. To be noted: Hershberger, duration: 10 days, oral, gavage.
Data set [7] has as its system Rattus norvegicus. This is another data set of the same source.
Setting [8] is: short-term, duration: 2 weeks, oral, gavage.
The mark [9] stands for this setting: subchronic, duration: 13 weeks, inhalation.
[10] abbreviates: subchronic, duration: 13 weeks, oral, gavage.
The mark [11] stands for this setting: short-term, duration: 2 weeks, oral, gavage, Fischer 344.
Setting [12] is: subchronic, duration: 13 weeks, inhalation, Sprague-Dawley.
The mark [13] stands for this setting: subchronic, duration: 13 weeks, oral, gavage, F, Fischer 344.
Where [14] appears, read: subchronic, duration: 13 weeks, oral, gavage, M, Fischer 344.
[15] abbreviates: chronic, inhalation, increased kidney, adrenal and pituitary weight.
[16] abbreviates: developmental, inhalation, Reduced maternal weight gain.
Setting [17] is: subchronic, duration: 90 days, oral, diet, increased liver weight, serum cholesterol, hepatic aminopyrine n-demethylase activity, and alanine transaminase levels.
Setting [18] is: reproduction developmental, oral, kidney, spleen, liver, and bone marrow toxicity.
[19] abbreviates: subchronic, duration: 90 days, oral, diet, Sprague-Dawley.
Where [20] appears, read: developmental, oral, reduced body weight gain in parental animals and pups.

Regarding `C=CC1CC=CCC1` (stereo not drawn) [4-Vinylcyclohexene], the LC50 was 46900 mg/m3 in data set [1] (acute, inhalation); 27000 mg/m3 and < 35400 mg/m3 in data set [2] (acute, inhalation). Also, the NOAEL in data set [1] (short-term, duration: 2 weeks, inhalation) came to 3190 mg/m3; in data set [1] (setting [8]), 1250 mg/kg-day; in data set [1] (setting [9]) it was 1110 mg/m3; in data set [1] (setting [10]) it was 600 mg/kg-day; in data set [2] (setting [11]) it was 600 mg/kg-day; in data set [2] (setting [12]), 1110 mg/m3. Also, the values for the no-observed-adverse-effect level (NOAEL) in data set [2] (setting [13]) and in data set [2] (setting [14]) were 400 mg/kg-day and 200 mg/kg-day, respectively. In addition, the LOAEL in data set [1] (setting [8]) was found to be 2500 mg/kg-day; in data set [1] (setting [9]), 4420 mg/m3; in data set [1] (setting [10]) it was 1200 mg/kg-day; in data set [2] (setting [11]) it was 1250 mg/kg-day; in data set [2] (setting [12]) it was 4420 mg/m3; in data set [2] (setting [13]), 800 mg/kg-day. The compound further yielded an LOAEL in data set [2] (setting [14]) of 400 mg/kg-day. This compound also yielded a median lethal dose (LD50) in data set [2] (acute, oral, gavage, Carworth Wistar) of 2560 mg/kg. The NOAEC in data set [2] (short-term, duration: 2 weeks, inhalation, F, Sprague-Dawley) was found to be 6640 mg/m3; in data set [2] (short-term, duration: 2 weeks, inhalation, M, Sprague-Dawley), 3190 mg/m3. The NOEL in data set [3] (duration: 13 weeks, M/F, Fischer 344, Deaths + Body Weight Changes: decrease + Histopathology: Kidney-Hyaline droplet degeneration Glandular stomach-Inflammation) is less than 50 mg/kg-day; in data set [3] (M, Sprague-Dawley, Clinical Observation: Salivation Locomotor activity decrease + Relative Organ Weight: Kidney increase + Histopathology: Stomach/Glandular …), less than 2 mg/kg-day.

For `FC(F)Cl` [Chlorodifluoromethane], the LOAEL in data set [4] (setting [15]) and in data set [4] (setting [16]) was 177000 mg/m3 in each case. Further, the no-observed-adverse-effect level (NOAEL) worked out at 35400 mg/m3 in data set [4] (setting [15]) and 3540 mg/m3 in data set [4] (setting [16]).

`CC(C)=CC1C(C(=O)OCc2coc(Cc3ccccc3)c2)C1(C)C` (stereo not drawn) [Resmethrin]: the LEL in data set [4] (reproduction developmental, oral, reproductive toxicity) amounted to 25 mg/kg-day.

In data set [4] (setting [17]), `CC(C)(C)[C@H](O)[C@H](Cc1ccc(Cl)cc1)n1cncn1` (racemic) [Paclobutrazol] gave an LEL of 62.5 mg/kg-day and an NOEL of 12.5 mg/kg-day.

In the case of `O=C(CCl)c1ccccc1` [2-Chloroacetophenone], the LOAEL in data set [4] (chronic, inhalation, squamous hyperplasia of the nasal respiratory epithelium) came out at 1 mg/m3.

`CN(C)NC(=O)CCC(=O)O` [Daminozide] had an NOEL in data set [4] (reproduction developmental, oral, no effects) of 15 mg/kg-day.

`CC(C)OC(=O)Nc1cccc(Cl)c1` [Chlorpropham]: the NOAEL in data set [3] (duration: 90 days, diet, M/F, Fischer 344, Clinical Observation: Pale + Body Weight Changes: decrease + Hematology: RBC decrease, HGB decrease, HCT decrease, MCV increase, MCH …) is less than 720 mg/kg-day. In data set [4] (setting [18]), this compound registered an LEL of 150 mg/kg-day and an NOEL of 50 mg/kg-day.

`CCCC(c1cc(C(C)(C)C)c(O)cc1C)c1cc(C(C)(C)C)c(O)cc1C` [4,4'-Butane-1,1-diylbis(2-tert-butyl-5-methylphenol)]: the median lethal dose (LD50) in data set [5] was more than 7940 mg/kg; in data set [2] (acute, oral, gavage, Sprague-Dawley) it was more than 7940 mg/kg. The NOAEL in data set [2] (reproduction developmental, duration: 90 days, oral, diet, M, Sprague-Dawley) was found to be 100 ppm; in data set [2] (setting [19]), 9.6 mg/kg-day. The compound also registered an LOAEL in data set [2] (setting [19]) of 48 mg/kg-day. The NOEL in data set [6] (Wistar, inactive + Negative + Negative + anti-androgenic + negative) came to 125 mg/kg-day; in data set [6] (Wistar, inactive + Negative + Negative + anti-androgenic + negative / effects on thyroid at 125 (initial increase in T4 at 5)), 125 mg/kg-day.

For the compound `CCN(CC)C(=O)C(C)Oc1cccc2ccccc12` (stereo not drawn) [Napropamide], in data set [4] (setting [20]), the LEL is 100 mg/kg-day and the NOEL turned out to be 30 mg/kg-day.

For the compound `C[CH2][Pb]([CH2]C)([CH2]C)[CH2]C` [Tetraethyl lead], the LOAEL in data set [4] (subchronic, oral, histopathology: liver and thymus) came to 0.0017 mg/kg-day.

`CC(C)Oc1cccc(NC(=O)c2ccccc2C(F)(F)F)c1` [Flutolanil] came in with an LEL in data set [4] (reproduction developmental, oral, Decreased body weight and body weight gains in both doses increased liver weights at high dose) of 63.7 mg/kg-day. For the same compound, in data set [6] (Sprague-Dawley, inactive + Negative + neither + negative), the NOEL is 1000 mg/kg-day.

As to `CC(Cl)CCl` (stereo not drawn) [1,2-Dichloropropane], the NOEL in data set [3] (duration: 13 weeks, M/F, Fischer 344, Deaths + Body Weight Changes: decrease + Histopathology: Liver/centrilobular-Congestion Liver-Hepatic fatty change Liver/centrilobular -…) came to 250 mg/kg-day. Also, the LOAEL was 69.3 mg/m3 in data set [4] (subchronic, duration: 13 weeks, inhalation, hyperplasia of the nasal mucosa); 462 mg/m3 in data set [7] (short-term, duration: 2 weeks, inhalation, M/F, Fischer 344, respiratory); 100 mg/kg-day in data set [7] (subchronic, duration: 13 weeks, oral, gavage, M, Sprague-Dawley, hematological).

`[Mo]` [Molybdenum] displayed a no-observed-adverse-effect level (NOAEL) in data set [7] (subchronic, duration: 90 days, oral, diet, M/F, Sprague-Dawley, renal) of 17 mg/kg-day.

Turning to `CCOC(C)(C)C` [Ethyl t-butyl ether], in data set [4] (chronic, duration: 2 years, inhalation, Fischer 344, Increased absolute kidney weight in female rats), the NOAEL turned out to be 6270 mg/m3.

As to `C=C(Cl)CCl` [2,3-Dichloro-1-propene], the LOAEL in data set [7] (short-term, duration: 11 days, inhalation, M/F, Fischer 344, respiratory) was 22.7 mg/m3.

The record behind these values is EPA's ToxValDB 9.5.
